According to patent publication US20250171457A1, “NITROGEN-CONTAINING HETEROCYCLIC COMPOUND HAVING NRF2 ACTIVATION EFFECT” (CHUGAI SEIYAKU KABUSHIKI KAISHA, priority 2022, published 2025):

System: Nrf2 transcriptional activity (pARE-Luc reporter) in HepG2 cells
Experiment: In vitro Nrf2 transcriptional activity measurement by ARE-dependent reporter assay in HepG2 cell
Assay type: cell-based, human
Settings: Homo sapiens; HepG2 cells transfected with pARE-Luc, 4 hours at 37° C.; luciferase activity of Example 1-54 or Example 17-23 at 3.75 μM defined as 100%
In short: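 Luminescence readout (Bright-Glo) after 4 h, 37° C compound exposure of HepG2 cells carrying the ARE-luciferase vector pGL4.37. Each well converted to % response versus reference compound at 3.75 μM, and EC50 derived from dose-response curves.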

Row | SMILES | EC50 [nM]
1 | COCCN1CCN(c2cc(Cl)c(C(=O)N3COc4c(cccc4-c4cc(N5C6CCC5COC6)c(C(=O)O)cc4F)C3)c(Cl)c2)CC1 [Compound 14-9, 4-[3-[2,6-Dichloro-4-[4-(2-methoxyethyl)piperazin-1-yl]benzoyl]-2,4-dihydro-1,3-benzoxazin-8-yl]-5-fluoro-2-(3-oxa-8-azabicyclo[3.2.1]octan-8-yl)benzoic acid] | 3.7
2 | Cn1nc2c(N3CC4(C3)OCC(C)(C)CO4)cc(Cl)c(C(=O)N3COc4c(cccc4-c4cc(N5C6CCC5COC6)c(C(=O)O)cc4F)C3)c2n1 [Compound 19-13, 4-[3-[5-Chloro-7-(7,7-dimethyl-5,9-dioxa-2-azaspiro[3.5]nonan-2-yl)-2-methylbenzotriazole-4-carbonyl]-2,4-dihydro-1,3-benzoxazin-8-yl]-5-fluoro-2-(3-oxa-8-azabicyclo[3.2.1]octan-8-yl)benzoic acid] | 2.1
3 | COc1cc(Cl)c(C(=O)N2COc3c(cccc3-c3cc(N4C5CCC4COC5)c(C(=O)O)cc3F)C2)c(Cl)c1 [Compound 4-40, 4-[3-(2,6-Dichloro-4-methoxybenzoyl)-2,4-dihydro-1,3-benzoxazin-8-yl]-5-fluoro-2-(3-oxa-8-azabicyclo[3.2.1]octan-8-yl)benzoic acid] | 8.9
4 | COCCOC1CC2(C1)CN(c1cc(Cl)c(C(=O)N3COc4c(cccc4-c4cc(N5C6CCC5COC6)c(C(=O)O)cc4F)C3)c(Cl)c1)C2 [Compound 6-9, 4-[3-[2,6-Dichloro-4-[6-(2-methoxyethoxy)-2-azaspiro[3.3]heptan-2-yl]benzoyl]-2,4-dihydro-1,3-benzoxazin-8-yl]-5-fluoro-2-(3-oxa-8-azabicyclo[3.2.1]octan-8-yl)benzoic acid] | 2.2
5 | COC1CN(c2cc(Cl)c(C(=O)N3COc4c(cccc4-c4cc(N5C6CCC5COC6)c(C(=O)O)cc4F)C3)c(Cl)c2)C1(C)C (stereo not shown) [Compound 1-9, 4-[3-[2,6-Dichloro-4-(3-methoxy-2,2-dimethylazetidin-1-yl)benzoyl]-2,4-dihydro-1,3-benzoxazin-8-yl]-5-fluoro-2-(3-oxa-8-azabicyclo[3.2.1]octan-8-yl)benzoic acid] | 4.6
6 | O=C(O)c1cc(F)c(-c2cccc3c2OCN(C(=O)c2c(Cl)cc(N4C5CCC4CN(C4COC4)C5)cc2Cl)C3)cc1N1C2CCC1COC2 [Compound 9-18, 4-[3-[2,6-Dichloro-4-[3-(oxetan-3-yl)-3,8-diazabicyclo[3.2.1]octan-8-yl]benzoyl]-2,4-dihydro-1,3-benzoxazin-8-yl]-5-fluoro-2-(3-oxa-8-azabicyclo[3.2.1]octan-8-yl)benzoic acid] | 6.4
7 | COC1(C)CC2(CN(c3cc(Cl)c(C(=O)N4COc5c(cccc5-c5cc(N6C7CCC6COC7)c(C(=O)O)cc5F)C4)c(Cl)c3)C2)C1 [Compound 16-2, 4-[3-[2,6-Dichloro-4-(6-methoxy-6-methyl-2-azaspiro[3.3]heptan-2-yl)benzoyl]-2,4-dihydro-1,3-benzoxazin-8-yl]-5-fluoro-2-(3-oxa-8-azabicyclo[3.2.1]octan-8-yl)benzoic acid] | 1.5
8 | CC[C@@H](c1cccc2c1CCN(C(=O)c1c(Cl)cc(-c3cnn(C)c3)cc1Cl)C2)[C@H](C)C(=O)O [Compound 17-8, (2S,3R)-3-[2-[2,6-Dichloro-4-(1-methylpyrazol-4-yl)benzoyl]-3,4-dihydro-1H-isoquinolin-5-yl]-2-methylpentanoic acid] | 20
9 | Cn1nnc2c(-c3cc(Cl)c(C(=O)N4COc5c(cccc5-c5cc(N6C7CCC6COC7)c(C(=O)O)cc5F)C4)c(Cl)c3)cccc21 [Compound 3-4, 4-[3-[2,6-Dichloro-4-(1-methylbenzotriazol-4-yl)benzoyl]-2,4-dihydro-1,3-benzoxazin-8-yl]-5-fluoro-2-(3-oxa-8-azabicyclo[3.2.1]octan-8-yl)benzoic acid] | 6.2
10 | Cc1cnn(C2CN(c3cc(Cl)c(C(=O)N4COc5c(cccc5-c5cc(N6C7CCC6COC7)c(C(=O)O)cc5F)C4)c(Cl)c3)C2)c1 [Compound 20-13, 4-[3-[2,6-Dichloro-4-[3-(4-methylpyrazol-1-yl)azetidin-1-yl]benzoyl]-2,4-dihydro-1,3-benzoxazin-8-yl]-5-fluoro-2-(3-oxa-8-azabicyclo[3.2.1]octan-8-yl)benzoic acid] | 5.5
11 | C[C@H]1CN(C2COC2)CCN1c1cc(Cl)c(C(=O)N2COc3c(cccc3-c3cc(N4C5CCC4COC5)c(C(=O)O)cc3F)C2)c(Cl)c1 [Compound 9-19, 4-[3-[2,6-Dichloro-4-[(2S)-2-methyl-4-(oxetan-3-yl)piperazin-1-yl]benzoyl]-2,4-dihydro-1,3-benzoxazin-8-yl]-5-fluoro-2-(3-oxa-8-azabicyclo[3.2.1]octan-8-yl)benzoic acid] | 5.9
12 | CN1C2CC1CN(c1cc(Cl)c(C(=O)N3COc4c(cccc4-c4cc(N5C6CCC5COC6)c(C(=O)O)cc4F)C3)c(Cl)c1)C2 [Compound 20-4, 4-[3-[2,6-Dichloro-4-(6-methyl-3,6-diazabicyclo[3.1.1]heptan-3-yl)benzoyl]-2,4-dihydro-1,3-benzoxazin-8-yl]-5-fluoro-2-(3-oxa-8-azabicyclo[3.2.1]octan-8-yl)benzoic acid] | 150
13 | O=C(O)c1cc(F)c(-c2cccc3c2OCN(C(=O)c2c(Cl)cc(N4CCN(CC5CCCO5)CC4)cc2Cl)C3)cc1N1C2CCC1COC2 (stereo not shown) [Compound 4-16, 4-[3-[2,6-Dichloro-4-[4-(oxolan-2-ylmethyl)piperazin-1-yl]benzoyl]-2,4-dihydro-1,3-benzoxazin-8-yl]-5-fluoro-2-(3-oxa-8-azabicyclo[3.2.1]octan-8-yl)benzoic acid] | 2.9

Second part, the molecule after the results:

Row | EC50 [nM] | SMILES
14 | 5.6 | O=C(O)c1ccc(-c2cccc3c2C(=O)NN(C(=O)c2c(Cl)cc(N4CCN(CC(F)(F)F)CC4)cc2Cl)C3)cc1N1CCOCC1 [Compound 1-77, 4-[2-[2,6-Dichloro-4-[4-(2,2,2-trifluoroethyl)piperazin-1-yl]benzoyl]-4-oxo-1,3-dihydrophthalazin-5-yl]-2-morpholin-4-ylbenzoic acid]
15 | 10 | Cn1ncc2cc(Cl)c(C(=O)N3COc4c(cccc4-c4cc(N5CCOCC5)c(C(=O)O)cc4F)C3)cc21 [Compound 13-15, 4-[3-(5-Chloro-1-methylindazole-6-carbonyl)-2,4-dihydro-1,3-benzoxazin-8-yl]-5-fluoro-2-morpholin-4-ylbenzoic acid]
16 | 8.2 | O=C(O)c1cc(F)c(-c2cccc3c2OCN(C(=O)c2c(Cl)cc(N4CCC5(CCOCC5)C4)cc2Cl)C3)cc1N1CCOCC1 [Compound 4-26, 4-[3-[2,6-Dichloro-4-(8-oxa-2-azaspiro[4.5]decan-2-yl)benzoyl]-2,4-dihydro-1,3-benzoxazin-8-yl]-5-fluoro-2-morpholin-4-ylbenzoic acid]
17 | 1.3 | CC(C)(CO)n1cc(-c2cc(Cl)c(C(=O)N3COc4c(cccc4-c4cc(N5CCOCC5)c(C(=O)O)cc4F)C3)c(Cl)c2)cn1 [Compound 3-1, 4-[3-[2,6-Dichloro-4-[1-(1-hydroxy-2-methylpropan-2-yl)pyrazol-4-yl]benzoyl]-2,4-dihydro-1,3-benzoxazin-8-yl]-5-fluoro-2-morpholin-4-ylbenzoic acid]
18 | 3.7 | O=C(O)c1ccc(-c2cccc3c2OCN(C(=O)c2c(Cl)cc(N4CCC(N5CCOCC5)CC4)cc2Cl)C3)cc1N1CCOCC1 [Compound 1-65, 4-[3-[2,6-Dichloro-4-(4-morpholin-4-ylpiperidin-1-yl)benzoyl]-2,4-dihydro-1,3-benzoxazin-8-yl]-2-morpholin-4-ylbenzoic acid]
19 | 15 | CN1CCN(c2cc(Cl)c(C(=O)N3COc4c(-c5cc(N6CCOCC6)c(C(=O)O)cc5F)ccc(F)c4C3)c(Cl)c2)CC1 [Compound 1-78, 4-[3-[2,6-Dichloro-4-(4-methylpiperazin-1-yl)benzoyl]-5-fluoro-2,4-dihydro-1,3-benzoxazin-8-yl]-5-fluoro-2-morpholin-4-ylbenzoic acid]
20 | 4.2 | CC(C)N1CCC(Oc2cc(Cl)c(C(=O)N3COc4c(cccc4-c4ccc(C(=O)O)c(N5CCOCC5)c4)C3)c(Cl)c2)CC1 [Compound 10-13, 4-[3-[2,6-Dichloro-4-(1-propan-2-ylpiperidin-4-yl)oxybenzoyl]-2,4-dihydro-1,3-benzoxazin-8-yl]-2-morpholin-4-ylbenzoic acid]
21 | 6.9 | Cc1cc(-c2cccc3c2OCN(C(=O)c2c(Cl)cc(N4CCOCC4)cc2Cl)C3)cc(N2CCOCC2)c1C(=O)O [Compound 4-32, 4-[3-(2,6-Dichloro-4-morpholin-4-ylbenzoyl)-2,4-dihydro-1,3-benzoxazin-8-yl]-2-methyl-6-morpholin-4-ylbenzoic acid]
22 | 9.8 | O=C(O)c1cc(F)c(-c2cccc3c2OCN(C(=O)c2c(Cl)cc(C4COC4)cc2Cl)C3)cc1N1CCOCC1 [Compound 16-12, 4-[3-[2,6-Dichloro-4-(oxetan-3-yl)benzoyl]-2,4-dihydro-1,3-benzoxazin-8-yl]-5-fluoro-2-morpholin-4-ylbenzoic acid]
23 | 310 | Cn1cc(-c2cc(Cl)c(C(=O)N3CCc4c(cccc4-c4ccc(C(=O)O)c(N5CCCCC5)n4)C3)c(Cl)c2)cn1 [Compound 18-11, 6-[2-[2,6-Dichloro-4-(1-methylpyrazol-4-yl)benzoyl]-3,4-dihydro-1H-isoquinolin-5-yl]-2-piperidin-1-ylpyridine-3-carboxylic acid]
24 | 6.8 | CN(c1cc(-c2cccc3c2OCN(C(=O)c2c(Cl)cc(-c4cnn(C)c4)cc2Cl)C3)c(F)cc1C(=O)O)C1(C)COC1 [Compound 16-14, 4-[3-[2,6-Dichloro-4-(1-methylpyrazol-4-yl)benzoyl]-2,4-dihydro-1,3-benzoxazin-8-yl]-5-fluoro-2-[methyl-(3-methyloxetan-3-yl)amino]benzoic acid]
25 | 2.9 | CN1CCCC(Oc2cc(Cl)c(C(=O)N3COc4c(cccc4-c4cc(N5CCOCC5)c(C(=O)O)cc4F)C3)c(Cl)c2)C1 (stereo not shown) [Compound 4-53, 4-[3-[2,6-Dichloro-4-(1-methylpiperidin-3-yl)oxybenzoyl]-2,4-dihydro-1,3-benzoxazin-8-yl]-5-fluoro-2-morpholin-4-ylbenzoic acid]
